The values below come from patent US20040077664A1, “Pharmaceutical formulation comprising pyrazolo[4,3-d]pyrimidine and nitrates or thienopyrimidines and nitrates” (priority 2001, published 2004).

Counter-ions that a name gives are not always drawn.

For `COc1ccc(CNc2nc(CCC(=O)O)nc3sc4c(c23)CCCC4)cc1Cl` [Example 2 (formula I-I), 3-[4-(3-chloro-4-methoxybenzylamino)-5,6,7,8-tetrahydro-[1]-benzothieno[2,3-d]pyrimidin-2-yl]propionic acid], the melting point (commonly the temperature, or range, at which the solid turns liquid) came out at 229 °C.
Compound `COc1ccc(CNc2nc(CCC(=O)O)nc3sc4ccccc4c23)cc1Cl` [Example 2 (formula I-II), 3-[4-(3-chloro-4-methoxybenzylamino)benzothieno[2,3-d]pyrimidin-2-yl]propionic acid] gave a melting point of 218 °C.
Then `CCCc1nn(C)c2c(NCc3ccc(OC)c(Cl)c3)nc(CCC(=O)O)nc12` [Example 2 (formula I), 3-[7-(3-chloro-4-methoxybenzylamino)-1-methyl-3-propyl-1H-pyrazolo-[4,3-d]pyrimidin-5-yl]propionic acid], with 178 °C; and `COC(=O)c1ccc(-c2nc(NCc3ccc(OC)c(Cl)c3)c3c(n2)sc2ccccc23)cc1` [Example 3 (formula I-II), methyl 4-[4-(3-chloro-4-methoxybenzylamino)-[1]-benzothieno[2,3-d]pyrimidin-2-yl]benzoate], with 203 to 204 °C; and `COc1ccc(CNc2nc(CCC(=O)O)nc3sc4c(c23)CCCC4)cc1Cl` (as salt: salt) [Example 2 (formula I-I), 3-[4-(3-chloro-4-methoxybenzylamino)-5,6,7,8-tetrahydro-[1]-benzothieno[2,3-d]pyrimidin-2-yl]propionic acid], with 135 °C.
